Data taken from patent US8686224B2, “Plant defense signal peptides” (priority 2005, dated 2014).
No end group written: not given here.

What was measured:
[1] = system: AtproPep1 gene expression; assay: Hormone treatments of intact plants, RT-PCR of AtproPep1 and paralogs; format: in vivo, Arabidopsis thaliana; settings: for expression of AtproPep1 paralogs after spraying: At5g64905, At5g64900, At5g64890, At5g09980; for expression of the AtproPep1 gene in intact plants: sprayed: MeJA 250 μM, ethephon 7 mM, within an hour
Procedure: Plant stress and hormone treatments. To examine effects of cold stress, plants were placed in a refrigerated growth chamber set to 2° C. To simulate drought stress conditions, plants grown under standard growth chamber conditions were grown without watering. Methyl jasmonate (Bedoukian Research Inc., Danbury Conn.) was applied as a 625 μM solution in 0.1% Triton X-100 to the upper surface of leaves and the plants were incubated in plexiglass boxes. Methyl salicylate (Sigma-Aldrich, St. Louis Mo.), was applied to leaf surfaces at 2 mM in a 0.1% Triton X-100 solution. Ethephon (Phytotechnology Laboratories, Shawnee Mission Kans.) was sprayed on plants as a 7 mM solution in 0.1% Triton X-100 (Sigma-Aldrich, St. Louis Mo.). ABA effects were analyzed by spraying plants with a 100 μM solution (mixed isomer, Sigma-Aldrich, St. Louis Mo.) in 0.1% Triton X-100 (Denekamp and Smeekens, Plant Physiol. 132, 1415-1423, 2003).
Semi-quantitative RT-PCR analysis of relative gene expression levels. RNA was isolated using Trizol reagent and manufacturer's instructions (Invitrogen. Carlsbad Calif.), and 2 μg of RNA template was reverse transcribed with a RETROscript kit (Ambion, Austin Tex.). PCR reactions were carried out with ExTaq Hot Start polymerase and reagents (Fisher Scientific, Pittsburgh Pa.). The AtproPep1 forward and reverse primers with the respective sequences of 5′ […] 3′ (SEQ ID NO: 59) and 5′ […] 3′ (SEQ ID NO: 60) generated a 310 bp intron-spanning product. Primers to β-tubulin (At5g62690) of 5′ […] 3′ (SEQ ID NO: 73) and 5′ […] 3′ (SEQ ID NO: 74) generated a 681 base pair intron-spanning product. An initial denaturing/polymerase activating step of 5 minutes at 94° C. was followed by 31 repetitions of the following three steps: a thirty second denaturation phase at 94° C., a thirty second annealing period at 55.5° C., and a one minute elongation step at 72° C. The amplification program was terminated with a 10 minute final 72° C. elongation phase.
Expression analysis of AtproPep1 in response to abiotic and biotic cues. As a first step in seeking a possible function for AtproPep1 and its encoded peptide, the basal expression level of the gene was assessed in leaves, stems, roots and flowers of Arabidopsis plants was studied using semi-quantitative RT-PCR analysis of AtproPep1 gene expression in response to treatment of leaves with MeJA, ethephon, MeSA, and AtPep1. The relative abundance of the proAtPep1 transcript was estimated from the expression of the β-tubulin gene as a control. Leaves were wounded by crushing once across the mid-vein with a hemostat. Plants were sprayed with a 250 μM solution of MeJA in 0.1% Triton X-100; with a […] solution of MeSA in 0.1% Triton X-100 or with a 7 mM solution of ethephon in 0.1% Triton X-100. […] Total RNA was extracted and analyzed.

[2] = system: AtPEPR1 and AtPEPR2 transcripts; assay: Expression analysis of AtPEPR1 and AtPEPR2 (Northern hybridization, quantitative RT-PCR); format: in vivo, Arabidopsis thaliana; settings: within 30 min
Procedure: Expression analysis of AtPEPR1 and AtPEPR2. […] In order to elucidate the role of AtPEPR2 in AtPeps signal transduction, the gene expression patterns were analyzed in comparison with AtPEPR1.

[3] = system: GmPROPEP and soybean defense-related gene expression; assay: Soybean gene expression by semi-quantitative RT-PCR; format: in vivo
Procedure: Precursor gene expression of soybean homologues of the AtPep peptide, GmPROPEP1, GmPROPEP2 and GmPROPEP3, were analyzed by semi-quantitative RT-PCR. GmPROPEP2 and GmPROPEP3 were expressed in leaves, stems and roots. GmPROPEP1 was expressed mainly in roots, and very weakly in leaves and stems. The transcripts of GmPROPEP1 increased 4-fold 1 hour after supplying MeJA and 3-fold 8 hours after wounding. The transcripts of GmPROPEP2 increased 5-fold 2 hours after supplying MeJA. GmPep1-3 also affected the precursor gene expression. The GmPROPEP1 was induced by infiltration of GmPep1-3 (50 nM), and GmPROPEP2 was induced by GmPep2 (50 nM) and GmPep3 (50 nM) infiltration.
To examine whether GmPep1-3 are involved in defense responses, expression of soybean defense-related genes were analyzed by semi-quantitative RT-PCR after GmPep1-3 infiltration. The transcripts of D6aH/CYP93a1, a biosynthetic enzyme of the soybean phytoalexin glyceollin (Schopfer et al., FEBS Lett. 432: […], 1998), were induced 2 to 3-fold by GmPep1-3 infiltration.

AtPEPR1 = target: T1, AtPEPR1 (Arabidopsis thaliana, UniProt Q9SSL9); assay: Medium alkalinization of transgenic tobacco cells expressing AtPEPR1; format: cell-based
T1 construct: Tobacco cells were transformed with a CaMV-35S-AtPEPR1 gene; expressed in transfected cells; host or cells: tobacco suspension-cultured cells (Agrobacterium-mediated, CaMV 35S promoter)
T1 sequence (Q9SSL9 29-1123): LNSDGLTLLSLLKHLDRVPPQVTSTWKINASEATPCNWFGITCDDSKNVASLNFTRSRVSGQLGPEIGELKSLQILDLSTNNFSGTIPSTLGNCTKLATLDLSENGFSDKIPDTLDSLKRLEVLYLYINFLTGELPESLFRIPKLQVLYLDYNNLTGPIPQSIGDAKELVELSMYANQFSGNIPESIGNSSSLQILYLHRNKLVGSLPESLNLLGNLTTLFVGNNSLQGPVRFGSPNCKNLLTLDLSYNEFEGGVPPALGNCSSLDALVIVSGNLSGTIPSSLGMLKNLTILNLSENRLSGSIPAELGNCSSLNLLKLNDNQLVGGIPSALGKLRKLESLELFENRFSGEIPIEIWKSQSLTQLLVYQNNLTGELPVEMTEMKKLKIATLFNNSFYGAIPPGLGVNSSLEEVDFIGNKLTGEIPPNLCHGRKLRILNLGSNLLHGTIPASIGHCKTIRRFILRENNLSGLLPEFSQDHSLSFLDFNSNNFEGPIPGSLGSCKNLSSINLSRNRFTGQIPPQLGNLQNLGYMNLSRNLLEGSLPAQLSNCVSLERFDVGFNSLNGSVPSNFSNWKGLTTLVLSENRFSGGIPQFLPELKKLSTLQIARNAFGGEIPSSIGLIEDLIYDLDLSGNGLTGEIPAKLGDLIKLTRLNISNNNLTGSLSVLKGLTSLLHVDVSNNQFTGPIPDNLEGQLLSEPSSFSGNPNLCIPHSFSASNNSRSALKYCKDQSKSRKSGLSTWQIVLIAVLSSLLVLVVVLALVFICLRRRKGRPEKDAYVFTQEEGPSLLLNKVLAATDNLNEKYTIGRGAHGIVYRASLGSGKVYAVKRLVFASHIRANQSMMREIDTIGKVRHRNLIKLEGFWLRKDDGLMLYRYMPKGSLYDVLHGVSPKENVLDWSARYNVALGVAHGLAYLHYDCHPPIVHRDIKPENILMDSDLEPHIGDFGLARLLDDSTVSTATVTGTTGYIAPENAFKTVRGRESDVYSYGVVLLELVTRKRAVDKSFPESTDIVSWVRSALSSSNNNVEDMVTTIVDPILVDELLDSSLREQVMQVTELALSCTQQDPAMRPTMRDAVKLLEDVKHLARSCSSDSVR
Source text: Tobacco cells were transformed with a CaMV-35S-AtPEPR1 gene to determine whether the foreign receptor protein was targeted to the cell surface, where, in response to AtPep1, it would activate intracellular signaling to effect the alkalinization of the medium of the transgenic tobacco cells. Expression of the AtPEPR1 gene was confirmed by RT-PCR analysis of RNA from three independently transformed tobacco cell lines. […] AtPep2-7 was also supplied to the transgenic tobacco cells expressing AtPEPR1.
(§1) To clarify whether AtPEPR2 binds to AtPep1, the AtPEPR2 coding region was fused to the CaMV 35S promoter and introduced into tobacco suspension-cultured cells by Agrobacterium. Tobacco cells expressing AtPEPR1 and GUS genes were also created as positive and negative controls, respectively. […] These transgenic lines were analyzed for alkalinizing activity as previously described (Pearce et al., Proc. Natl. Acad. Sci. USA 98, 12843-12847, 2001).
(§2) The response to all AtPep peptides in transgenic tobacco cells expressing either AtPEPR1 or AtPEPR2 was analyzed by the medium alkalinization assay.

OsPEPR1 = assay: Medium alkalinization of transgenic tobacco cells expressing OsPEPR1; format: cell-based, rice
Sequence of OsPEPR1 (as listed by the source): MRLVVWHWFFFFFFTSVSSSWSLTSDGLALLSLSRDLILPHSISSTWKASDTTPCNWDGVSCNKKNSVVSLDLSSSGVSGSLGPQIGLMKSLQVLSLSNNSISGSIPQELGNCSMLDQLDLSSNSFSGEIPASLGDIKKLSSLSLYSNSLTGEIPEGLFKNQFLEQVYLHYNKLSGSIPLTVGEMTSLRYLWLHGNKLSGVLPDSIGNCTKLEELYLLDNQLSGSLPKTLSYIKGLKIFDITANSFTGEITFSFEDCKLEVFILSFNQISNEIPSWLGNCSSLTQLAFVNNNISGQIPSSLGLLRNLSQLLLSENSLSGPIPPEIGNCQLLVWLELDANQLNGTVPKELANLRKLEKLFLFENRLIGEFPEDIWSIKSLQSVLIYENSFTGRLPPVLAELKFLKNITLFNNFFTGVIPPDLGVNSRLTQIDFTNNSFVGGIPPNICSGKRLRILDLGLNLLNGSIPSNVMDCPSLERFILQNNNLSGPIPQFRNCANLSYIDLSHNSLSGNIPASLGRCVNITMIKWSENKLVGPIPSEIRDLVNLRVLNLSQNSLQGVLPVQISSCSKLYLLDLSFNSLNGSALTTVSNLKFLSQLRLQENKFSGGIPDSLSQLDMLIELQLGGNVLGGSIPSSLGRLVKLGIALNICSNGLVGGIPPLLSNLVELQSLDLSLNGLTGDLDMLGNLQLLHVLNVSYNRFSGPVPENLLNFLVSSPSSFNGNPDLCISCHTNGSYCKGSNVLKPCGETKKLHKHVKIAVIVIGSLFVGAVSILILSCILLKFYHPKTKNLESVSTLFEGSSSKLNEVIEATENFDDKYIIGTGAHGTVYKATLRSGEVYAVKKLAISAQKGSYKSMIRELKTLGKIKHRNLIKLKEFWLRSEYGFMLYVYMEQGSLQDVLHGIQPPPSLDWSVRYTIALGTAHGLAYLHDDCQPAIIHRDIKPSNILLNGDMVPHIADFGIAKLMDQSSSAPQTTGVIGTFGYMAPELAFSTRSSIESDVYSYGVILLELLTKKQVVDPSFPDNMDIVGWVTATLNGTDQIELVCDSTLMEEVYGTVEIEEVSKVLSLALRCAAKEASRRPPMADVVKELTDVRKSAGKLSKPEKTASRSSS
Source text: (§3) We identified rice homologues of AtPEPR1 in the Rice Annotation Project database (see the website located at www.rapdb.dna.affrc.go.jp). The rice homologues, OsPEPR1 (Os08g0446200) and OsPEPR2 (Os08g0446400), have 60% and 62% amino acid similarities, respectively. The OsPEPR1 has 26 LRRs in the extracellular region, which is the same as AtPEPR1. The OsPEPR2 has a shorter extracellular region with 22 LRRs. Transgenic tobacco cells expressing either OsPEPR1 or OsPEPR2 were created to examine the possibility of receptor binding to monocot peptides. OsPep3a, OsPep3b, OsPep3c, ZmPep1 and ZmPep4a were supplied to suspension cultured transgenic tobacco cells, and medium pH was measured. OsPep3a, OsPep3b, ZmPep1 and ZmPep4a caused medium alkalinization in OsPEPR1 expressing cells with a 1.2 pH unit increase and a half-maximal activity of 0.25 nM.

OsPEPR2 = assay: Medium alkalinization of transgenic tobacco cells expressing OsPEPR2; format: cell-based, rice
Sequence of OsPEPR2 (as listed by the source): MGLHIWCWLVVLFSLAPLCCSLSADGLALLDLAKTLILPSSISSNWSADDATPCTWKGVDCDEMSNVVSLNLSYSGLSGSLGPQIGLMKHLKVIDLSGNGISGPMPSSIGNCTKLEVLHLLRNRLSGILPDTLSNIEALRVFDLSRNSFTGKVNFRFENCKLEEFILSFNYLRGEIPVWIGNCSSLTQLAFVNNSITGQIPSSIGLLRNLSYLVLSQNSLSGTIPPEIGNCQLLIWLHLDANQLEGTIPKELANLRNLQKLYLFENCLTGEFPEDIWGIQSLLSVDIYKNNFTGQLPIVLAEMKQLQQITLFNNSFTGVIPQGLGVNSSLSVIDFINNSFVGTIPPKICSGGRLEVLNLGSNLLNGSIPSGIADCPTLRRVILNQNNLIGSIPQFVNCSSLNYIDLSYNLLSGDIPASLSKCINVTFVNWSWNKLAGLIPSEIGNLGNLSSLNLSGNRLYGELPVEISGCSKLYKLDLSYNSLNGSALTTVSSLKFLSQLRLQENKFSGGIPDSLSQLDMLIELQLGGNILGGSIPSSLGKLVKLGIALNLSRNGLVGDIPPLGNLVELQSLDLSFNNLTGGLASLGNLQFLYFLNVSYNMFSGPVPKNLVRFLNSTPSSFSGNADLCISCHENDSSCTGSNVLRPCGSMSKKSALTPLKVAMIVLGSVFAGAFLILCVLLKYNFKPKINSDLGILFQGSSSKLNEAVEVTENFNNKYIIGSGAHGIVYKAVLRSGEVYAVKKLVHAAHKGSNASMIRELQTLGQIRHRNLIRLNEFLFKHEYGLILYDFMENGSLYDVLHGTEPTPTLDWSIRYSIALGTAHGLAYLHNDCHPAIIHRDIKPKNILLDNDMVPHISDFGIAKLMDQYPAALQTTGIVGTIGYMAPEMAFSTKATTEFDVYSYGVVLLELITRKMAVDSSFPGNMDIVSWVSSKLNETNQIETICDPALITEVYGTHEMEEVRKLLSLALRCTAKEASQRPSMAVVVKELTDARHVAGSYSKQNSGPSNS
Source text: as §3

AtPEPR2 = target: T2, AtPEPR2 (Arabidopsis thaliana, UniProt Q9FZ59); assay: Medium alkalinization of transgenic tobacco cells expressing AtPEPR2; format: cell-based
T2 construct: the AtPEPR2 coding region was fused to the CaMV 35S promoter and introduced into tobacco suspension-cultured cells; expressed in transfected cells; host or cells: tobacco suspension-cultured cells, transformed by Agrobacterium, kanamycin-selected
T2 sequence (Q9FZ59 27-1088): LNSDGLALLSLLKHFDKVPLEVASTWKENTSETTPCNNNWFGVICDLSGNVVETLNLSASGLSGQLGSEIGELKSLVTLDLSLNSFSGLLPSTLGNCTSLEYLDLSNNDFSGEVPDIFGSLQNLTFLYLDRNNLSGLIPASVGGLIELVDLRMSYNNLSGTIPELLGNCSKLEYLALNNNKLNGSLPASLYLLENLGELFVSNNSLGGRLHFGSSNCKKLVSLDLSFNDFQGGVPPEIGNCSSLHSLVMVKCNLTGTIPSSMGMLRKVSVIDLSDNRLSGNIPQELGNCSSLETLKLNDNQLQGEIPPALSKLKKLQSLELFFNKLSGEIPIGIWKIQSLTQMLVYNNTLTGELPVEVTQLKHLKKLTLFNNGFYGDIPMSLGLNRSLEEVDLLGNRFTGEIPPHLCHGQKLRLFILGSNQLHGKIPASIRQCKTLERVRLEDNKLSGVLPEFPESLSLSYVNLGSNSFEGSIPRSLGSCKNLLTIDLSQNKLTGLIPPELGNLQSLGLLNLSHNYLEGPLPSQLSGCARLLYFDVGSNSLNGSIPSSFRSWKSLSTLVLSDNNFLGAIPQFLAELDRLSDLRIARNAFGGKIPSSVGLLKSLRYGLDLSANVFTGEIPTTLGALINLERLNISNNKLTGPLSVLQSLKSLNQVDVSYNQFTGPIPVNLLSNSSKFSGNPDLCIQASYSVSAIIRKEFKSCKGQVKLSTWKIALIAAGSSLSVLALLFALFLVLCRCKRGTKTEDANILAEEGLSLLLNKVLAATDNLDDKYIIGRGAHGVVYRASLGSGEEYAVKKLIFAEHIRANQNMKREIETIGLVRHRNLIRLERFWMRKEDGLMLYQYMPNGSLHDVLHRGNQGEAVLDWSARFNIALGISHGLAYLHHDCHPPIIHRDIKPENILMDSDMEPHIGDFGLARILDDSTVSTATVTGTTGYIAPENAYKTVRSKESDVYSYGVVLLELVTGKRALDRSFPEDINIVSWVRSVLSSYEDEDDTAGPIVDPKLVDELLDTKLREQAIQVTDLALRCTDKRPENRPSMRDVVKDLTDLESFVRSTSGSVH
Procedure: as §1, §2

CC/C=C\CC1C(=O)CCC1CC(=O)OC (centres unmarked) [MeJA, methyl jasmonate]
expression of AtproPep1 paralogs after spraying [1]: expressed relatively strongly
expression of the AtproPep1 gene in intact plants [1]: induced a strong expression
induction of AtPEPR1 and AtPEPR2 transcripts [2]: induced
increase of GmPROPEP1 transcripts ([3]; 1 hour after supplying): 4 fold
increase of GmPROPEP2 transcripts ([3]; 2 hours after supplying): 5 fold

COC(=O)c1ccccc1O [MeSA, methyl salicylate, reference compound]
expression of AtproPep1 paralogs after spraying [1]: strongly induced only two of the genes

O=P(O)(O)CCCl [ethephon]
expression of the AtproPep1 gene in intact plants [1]: induced a strong expression

EIKARGKNKTKPTPSSGKGGKHN [AtPep3, DNKAKSKKRDKEKPSSGRPGQTN]
maximal change (AtPEPR1; AtPEPR1 expressing tobacco cells): 1.2 pH units
induction of AtPEPR1 and AtPEPR2 transcripts [2]: strong inducer

SLAGANVLVRDAPPETGGGPHHN (SLAGANVLVRDAPPETGGGPHHN) [OsPep3c]
medium alkalinization activity (OsPEPR1): did not show any activity
medium alkalinization activity (OsPEPR2): weak activity
medium pH increase (OsPEPR2; peptide at 250 nM): 0.5 pH unit

SLNVMRKGIRKQPVSSGKRGGVN [AtPep2, SLNVMRKGIRKQPVSSGKRGGVN]
EC50 (AtPEPR1): ~0.25 nM
EC50 (AtPEPR2): ~0.25 nM
